Data as given in patent publication US20110224210A1, “NOVEL BIS-AMIDES AS ANTI-MALARIAL AGENTS” (priority 2008, published 2011).

Each compound was assayed on P. falciparum K1 (strain resistant to chloroquine and pyrimethamine), erythrocytic stages (assay: Plasmodium falciparum in vitro assay, [3H] hypoxanthine incorporation). Details: P. falciparum strain K1; [3H] hypoxanthine incorporation; read-out: IC50 (nM) on K1.
Format: cell-based
Outline: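 Chloroquine/pyrimethamine-resistant K1 erythrocytic cultures (2.5% haematocrit, 0.3% parasitaemia, hypoxanthine-free RPMI with Albumax) exposed to seven doubling dilutions at 37 °C under low O2.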

Row | IC50 | SMILES
1 | 89 nM | CC(=O)N1CCN(c2ccc(CN(C(=O)C=Cc3ccc(C(F)(F)F)cc3)[C@@H](Cc3ccccc3)C(=O)N(C)CCOCc3ccc(C)cc3C)cc2)CC1 [Example 194, (S)-N-[4-(4-Acetyl-piperazin-1-yl)-benzyl]-N-(1-{[2-(2,4-dimethyl-benzyloxy)-ethyl]-methyl-carbamoyl}-2-phenyl-ethyl)-3-(4-trifluoromethyl-phenyl)-acrylamide]

Same assay, conditions: Plasmodium falciparum, K1, P. falciparum strain K1; [3H] hypoxanthine incorporation; read-out: IC50 (nM) on K1

Row | IC50 | SMILES
2 | 285 nM | COCCN(C)C(=O)[C@H](Cc1ccccc1)N(Cc1ccc(-c2cncnc2)cc1)C(=O)C=Cc1cnc(C)n1C [Example 120, (S)-3-(2,3-Dimethyl-3H-imidazol-4-yl)-N-{1-[(2-methoxy-ethyl)-methyl-carbamoyl]-2-phenyl-ethyl}-N-(4-pyrimidin-5-yl-benzyl)-acrylamide]
3 | 315 nM | Cc1nc(C=CC(=O)N(Cc2ccc(-c3ccccn3)cc2)[C@@H](Cc2ccccc2)C(=O)N2CCC(N(C)C)CC2)cs1 [Example 11, (S)-N-[1-Benzyl-2-(4-dimethylamino-piperidin-1-yl)-2-oxo-ethyl]-3-(2-methyl-thiazol-4-yl)-N-(4-pyridin-2-yl-benzyl)-acrylamide]
4 | 44 nM | COCCN(C)C(=O)[C@H](Cc1ccccc1)N(Cc1ccc(-c2ccccn2)cc1)C(=O)C=Cc1c(C)noc1C [Example 80, (S)-3-(3,5-Dimethyl-isoxazol-4-yl)-N-{1-[(2-methoxy-ethyl)-methyl-carbamoyl]-2-phenyl-ethyl}-N-(4-pyridin-2-yl-benzyl)-acrylamide]
5 | 373 nM | O=C(NCCN1CCOCC1)[C@H](Cc1ccccc1)N(Cc1ccc(-c2ccccn2)cc1)C(=O)C=Cc1ccc(C(F)(F)F)cc1 [Example 151]
6 | 75 nM | CN(Cc1ccc(NC(=O)C2CC2)cc1)C(=O)[C@H](Cc1ccccc1)N(Cc1ccc(N2CCOCC2)cc1)C(=O)C=Cc1ccc(C(F)(F)F)nc1 [Example 273, (S)-Cyclopropanecarboxylic acid (4-{[methyl-(2-{(4-morpholin-4-yl-benzyl)-[3-(6-trifluoromethyl-pyridin-3-yl)-acryloyl]-amino}-3-phenyl-propionyl)-amino]-methyl}-phenyl)-amide]
7 | < 8 nM | COCCN(C)C(=O)C(CN1CCOCC1)N(Cc1ccc(-c2ccccn2)cc1)C(=O)C=Cc1ccc(C(F)(F)F)cc1 (racemic) [Example 279]
8 | 81 nM | Cc1ccc(COCCN(C)C(=O)[C@H](Cc2ccccc2)N(Cc2ccc(N3CCOCC3)cc2)C(=O)C=Cc2ccc(C(F)(F)F)cc2)c(C)c1 [Example 195, (S)-N-(1-{[2-(2,4-Dimethyl-benzyloxy)-ethyl]-methyl-carbamoyl}-2-phenyl-ethyl)-N-(4-morpholin-4-yl-benzyl)-3-(4-trifluoromethyl-phenyl)-acrylamide]
9 | 32 nM | COCCN(C)C(=O)[C@H](Cc1ccccc1)N(Cc1ccc(N2CCN(C(C)=O)CC2)cc1)C(=O)C=Cc1ccc(OC)nc1 [Example 115, (S)-N-[4-(4-Acetyl-piperazin-1-yl)-benzyl]-N-{1-[(2-methoxy-ethyl)-methyl-carbamoyl]-2-phenyl-ethyl}-3-(6-methoxy-pyridin-3-yl)-acrylamide]
10 | 48 nM | COCCN(C)C(=O)[C@H](Cc1ccccc1)N(Cc1ccc(N2CCOCC2)cc1)C(=O)C=Cc1c(C)nn(C)c1C [Example 60, (S)-N-{1-[(2-Methoxy-ethyl)-methyl-carbamoyl]-2-phenyl-ethyl}-N-(4-morpholin-4-yl-benzyl)-3-(1,3,5-trimethyl-1H-pyrazol-4-yl)-acrylamide]
11 | 45 nM | COCCN(C)C(=O)[C@H](Cc1ccccc1)N(Cc1ccccn1)C(=O)C=Cc1ccc(C)cc1 [Example 162, (S)-N-{1-[(2-Methoxy-ethyl)-methyl-carbamoyl]-2-phenyl-ethyl}-N-pyridin-2-ylmethyl-3-p-tolyl-acrylamide]
12 | 54 nM | Cc1c(C=CC(=O)N(Cc2ccc(-c3ccncc3)cc2)[C@@H](Cc2ccccc2)C(=O)N2CCC(N(C)C)CC2)cnn1C [Example 31, (S)-N-[1-Benzyl-2-(4-dimethylamino-piperidin-1-yl)-2-oxo-ethyl]-3-(1,5-dimethyl-1H-pyrazol-4-yl)-N-(4-pyridin-4-yl-benzyl)-acrylamide]
13 | 117 nM | COCCN(C)C(=O)[C@H](Cc1ccccc1)N(Cc1ccc(N2CCN(C(C)=O)CC2)cc1)C(=O)C=Cc1cnn(C)c1C [Example 117, (S)-N-[4-(4-Acetyl-piperazin-1-yl)-benzyl]-3-(1,5-dimethyl-1H-pyrazol-4-yl)-N-{1-[(2-methoxy-ethyl)-methyl-carbamoyl]-2-phenyl-ethyl}-acrylamide]
14 | 18 nM | CN(CCOCc1ccccc1)C(=O)[C@H](Cc1ccccc1)N(Cc1ccc(N2CCOCC2)cc1)C(=O)C=Cc1ccc(C(F)(F)F)cc1 [Example 182, (S)-N-{1-[(2-Benzyloxy-ethyl)-methyl-carbamoyl]-2-phenyl-ethyl}-N-(4-morpholin-4-yl-benzyl)-3-(4-trifluoromethyl-phenyl)-acrylamide]
